# According to PubChem BioAssay (NCI):
#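 Assay format: 96-well plates, 48-hour exposure. Abbreviation: GI50, concentration required for 50% inhibition of growth. TGI is the concentration that stops growth completely.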
# Legend:
# Assay in all cases: NCI-60 cell line screen, 48 h
# A549 NSCLC = system: A549 NSCLC
# ACHN renal = system: ACHN renal
# IGROV1 ovarian = system: IGROV1 ovarian
# MOLT-4 leukemia = system: MOLT-4 leukemia
# NCI-H460 lung = system: NCI-H460 lung
# SF-268 CNS = system: SF-268 CNS
# SK-MEL-28 melanoma = system: SK-MEL-28 melanoma
# SN12C renal = system: SN12C renal
# SR leukemia = system: SR leukemia
# U251 CNS = system: U251 CNS
# BT-549 breast = system: BT-549 breast
# HOP-92 NSCLC = system: HOP-92 NSCLC
# MCF7 breast = system: MCF7 breast
# MDA-MB-435 = system: MDA-MB-435
# SNB-75 CNS = system: SNB-75 CNS
Structure (SMILES),TGI (A549 NSCLC),TGI (ACHN renal),TGI (IGROV1 ovarian),TGI (MOLT-4 leukemia),TGI (NCI-H460 lung),TGI (SF-268 CNS),TGI (SK-MEL-28 melanoma),TGI (SN12C renal),TGI (SR leukemia),TGI (U251 CNS),GI50 (SF-268 CNS),TGI (BT-549 breast),TGI (HOP-92 NSCLC),TGI (MCF7 breast),TGI (MDA-MB-435),TGI (SNB-75 CNS)
CN(C)C(=S)Nc1nnc(NC23CC4CC(CC(C4)C2)C3)s1,36.5 µM,64 µM,72.8 µM,> 100 µM,26.8 µM,48.5 µM,31.3 µM,38.1 µM,57.9 µM,25.3 µM,–,–,–,–,–,–
CN(C)c1cccc(-c2cc(=O)c3ccccc3[nH]2)c1,> 100 µM,> 100 µM,> 100 µM,> 100 µM,> 100 µM,> 100 µM,> 100 µM,> 100 µM,> 100 µM,> 100 µM,76.6 µM,–,–,–,–,–
Nn1c(CNc2ccc(-c3nnc(Nc4ccc(Cl)cc4)n3N)cc2)nnc1Nc1ccc(Cl)cc1,> 100 µM,> 100 µM,> 100 µM,> 100 µM,> 100 µM,> 100 µM,> 100 µM,> 100 µM,–,> 100 µM,–,> 100 µM,> 100 µM,> 100 µM,> 100 µM,> 100 µM
CSCCC(NC(=O)C(Cc1ccccc1)NC(=O)CNC(=O)CNC(=O)C(N)Cc1ccc(O)cc1)C(=O)O (stereo not given),> 100 µM,–,> 100 µM,> 100 µM,> 100 µM,> 100 µM,> 100 µM,> 100 µM,–,> 100 µM,–,–,> 100 µM,> 100 µM,–,> 100 µM
OC(c1cc(C(O)(C(F)(F)F)C(F)(F)F)ncn1)(C(F)(F)F)C(F)(F)F,> 10 µM,> 10 µM,> 10 µM,> 10 µM,> 10 µM,> 10 µM,> 10 µM,> 10 µM,> 10 µM,> 10 µM,–,–,> 10 µM,> 10 µM,> 10 µM,> 10 µM
C#CCNC(=O)CCC(N)C(=O)O (stereo not given),> 100 µM,–,> 100 µM,> 100 µM,> 100 µM,> 100 µM,> 100 µM,> 100 µM,–,> 100 µM,–,–,> 100 µM,> 100 µM,–,> 100 µM
C=CCCCCOC1C=CC(OC(C)=O)C(COC(C)=O)O1 (stereo not given),> 100 µM,> 100 µM,> 100 µM,> 100 µM,> 100 µM,> 100 µM,> 100 µM,> 100 µM,–,> 100 µM,–,> 100 µM,> 100 µM,> 100 µM,> 100 µM,–
OC1CN(OC/C=C/c2ccccc2)CC(O)C1O (stereo not given),> 100 µM,> 100 µM,> 100 µM,> 100 µM,> 100 µM,> 100 µM,> 100 µM,> 100 µM,–,> 100 µM,–,–,> 100 µM,–,–,> 100 µM
CSC1=N/C(=C\c2cccs2)C(=O)N1CN1CCOCC1,> 100 µM,> 100 µM,> 100 µM,> 100 µM,–,> 100 µM,> 100 µM,> 100 µM,> 100 µM,> 100 µM,–,–,94.3 µM,> 100 µM,> 100 µM,> 100 µM
CCCOc1ccc(/C(Cl)=C(\C=O)c2ccc(OC)c(OC)c2)cc1OCCC,> 100 µM,> 100 µM,> 100 µM,> 100 µM,28.7 µM,> 100 µM,25.3 µM,> 100 µM,12 µM,33.9 µM,–,–,51.2 µM,–,–,75.3 µM
O=C1/C(=C/c2ccc(O)cc2)NC(=S)N1CN1CCCCC1,> 100 µM,> 100 µM,> 100 µM,> 100 µM,–,> 100 µM,> 100 µM,> 100 µM,> 100 µM,> 100 µM,–,–,> 100 µM,> 100 µM,> 100 µM,> 100 µM
NCCCNCCSSCc1ccccc1CSSCCNCCCN,> 100 µM,> 100 µM,> 100 µM,> 100 µM,> 100 µM,> 100 µM,> 100 µM,> 100 µM,–,> 100 µM,–,–,87.9 µM,–,–,70 µM
COc1ccc2nc(-c3ccc(OC(=O)N(C)C)cc3)cn2c1,> 100 µM,> 100 µM,> 100 µM,> 100 µM,> 100 µM,> 100 µM,> 100 µM,> 100 µM,> 100 µM,> 100 µM,–,–,> 100 µM,> 100 µM,> 100 µM,> 100 µM
COC1/C=C\C=C(/C)C(=O)NC2=CC(=O)C=C(C2=O)C(OC)C(C)CC(OC)C(OC)C(C)/C=C(/C)C1OC(N)=O (stereo not given),32.4 µM,–,26 µM,1.25 µM,27.2 µM,26.6 µM,19.8 µM,19 µM,–,25.8 µM,–,–,4.52 µM,8.37 µM,–,31.6 µM
CCOC(=O)/C(C(=S)NC)=C(/N)N1CCCC1,> 100 µM,> 100 µM,> 100 µM,> 100 µM,> 100 µM,> 100 µM,> 100 µM,> 100 µM,> 100 µM,> 100 µM,–,–,> 100 µM,–,> 100 µM,–
CN1CCc2c(sc3nc(Nc4ccccc4)n(N)c(=O)c23)C1,> 100 µM,> 100 µM,> 100 µM,> 100 µM,> 100 µM,> 100 µM,–,> 100 µM,–,–,–,> 100 µM,–,> 100 µM,–,–
CN(C)c1nc(N(C)C)nc(N(C)CN(C)c2ccccc2)n1,> 100 µM,> 100 µM,> 100 µM,> 100 µM,> 100 µM,> 100 µM,> 100 µM,> 100 µM,–,> 100 µM,–,–,–,–,–,> 100 µM
COc1ccc2c(=O)c([Se]c3coc4cc(OC)ccc4c3=O)coc2c1,> 100 µM,> 100 µM,> 100 µM,> 100 µM,> 100 µM,> 100 µM,> 100 µM,> 100 µM,> 100 µM,> 100 µM,–,–,> 100 µM,–,–,87.5 µM
C=CCN1CCC(OC(=O)C(O)(/C=C\CC)C2CCCC2)CC1 (stereo not given),> 100 µM,> 100 µM,> 100 µM,> 100 µM,–,> 100 µM,> 100 µM,> 100 µM,–,> 100 µM,–,> 100 µM,> 100 µM,> 100 µM,> 100 µM,> 100 µM
